How the values were obtained:
Type in all cases: in vivo
[1] = system: Alopecurus myosuroides (ALOMY); assay: Herbicidal pre-emergence action; details: graded after ca. 3 weeks
From the text: (§1) Seeds of mono- and dicotyledonous weed plants and crop plants were sown, in plastic or organic planting pots, in sandy loam and covered with soil. The compounds according to the invention, formulated in the form of wettable powders (WP) or as emulsifiable concentrates (EC), were applied to the surface of the covering soil as aqueous suspension or emulsion, with the addition of 0.5% of an additive, at an application rate of 600 1 of water/ha (converted).
(§2) Following treatment, the pots were placed in a greenhouse and kept under optimum growth conditions for the test plants. The visual grading of the damage to the test plants was carried out after ca. 3 weeks in comparison to untreated controls (herbicidal effect in percent (%): 100% effect=plants have died off, 0% effect=as control plants).
(§3) Tables A1 to A16, below, show the effects of selected compounds of the general formula (I) according to table 1 on various harmful plants and an application rate corresponding to 1280 g/ha or lower obtained by the experimental procedure mentioned above.

Avena fatua (AVEFA) [2] = assay: Herbicidal pre-emergence action; details: graded after ca. 3 weeks
From the text: as §1, §2, §3

[3] = system: Echinochloa crus-galli (ECHCG); assay: Herbicidal pre-emergence action; details: 1280 g/ha, graded after ca. 3 weeks
From the text: as §1, §2, §3

[4] = system: Lolium multiflorum (LOLMU); assay: Herbicidal pre-emergence action; details: 1280 g/ha, graded after ca. 3 weeks
From the text: as §1, §2, §3

[5] = system: Polygonum convolvulus (POLCO); assay: Herbicidal pre-emergence action; details: graded after ca. 3 weeks
From the text: as §1, §2, §3

[6] = system: Alopecurus myosuroides (ALOMY); assay: Herbicidal post-emergence action; details: assessed after ca. 3 weeks
From the text: (§4) Seeds of mono- and dicotyledonous weed plants and crop plants were sown, in plastic or organic planting pots, in sandy loam, covered with soil and grown in a greenhouse under controlled growth conditions. 2 to 3 weeks after sowing, the test plants were sprayed in the single-leaf stage. The compounds according to the invention, formulated in form of wettable powders (WP) or as emulsifiable concentrates (EC), were sprayed onto the green plant parts as aqueous suspension or emulsion, with the addition of 0.5% of an additive, at an application rate of 600 1 of water/ha (converted). The test plants were placed in the greenhouse for ca. 3 weeks under optimum growth conditions, and then the effect of the preparations was assessed visually in comparison with untreated controls (herbicidal effect in percent (%): 100% effect=plants have died off, 0% effect=as control plants).
(§5) Tables B1 to B16 below show the effects of selected compounds of the general formula (I) according to table 1 on various harmful plants and an application rate corresponding to 1280 g/ha or 320 g/ha obtained by the experimental procedure mentioned above.

Avena fatua (AVEFA) [7] = assay: Herbicidal post-emergence action; details: assessed after ca. 3 weeks
From the text: as §4, §5

[8] = system: Echinochloa crus-galli (ECHCG); assay: Herbicidal post-emergence action; details: assessed after ca. 3 weeks
From the text: as §4, §5

[9] = system: Lolium multiflorum (LOLMU); assay: Herbicidal post-emergence action; details: assessed after ca. 3 weeks
From the text: as §4, §5

[10] = system: Polygonum convolvulus (POLCO); assay: Herbicidal post-emergence action; details: assessed after ca. 3 weeks
From the text: as §4, §5

Setaria viridis (SETVI) [11] = assay: Herbicidal post-emergence action; details: 1280 g/ha, assessed after ca. 3 weeks
From the text: as §4, §5

[12] = system: Digitaria sanguinalis (DIGSA); assay: Herbicidal pre-emergence action; details: 320 g/ha, graded after ca. 3 weeks
From the text: as §1, §2, §3

Lolium rigidum (LOLRI) = assay: Herbicidal pre-emergence action; details: 320 g/ha, graded after ca. 3 weeks
From the text: as §1, §2, §3

Setaria viridis (SETVI) [13] = assay: Herbicidal pre-emergence action; details: 1280 g/ha, graded after ca. 3 weeks
From the text: as §1, §2, §3

Viola tricolor (VIOTR) = assay: Herbicidal pre-emergence action; details: graded after ca. 3 weeks
From the text: as §1, §2, §3

Brassica napus (BRSNW) = assay: Post-emergence effects on crop plants; details: application rate 320 g/ha, crop plant Brassica napus (BRSNW)
From the text: as §4
Tables D1 to D3 below show the effects of selected compounds of the general formula (I) according to table 1 on various crop plants and an application rate corresponding to 320 g/ha or below obtained by the experimental procedure mentioned above in biology section B.

[14] = system: Cyperus esculentus (CYPES); assay: Herbicidal pre-emergence action; details: graded after ca. 3 weeks
From the text: as §1, §2, §3

Veronica persica (VERPE) = assay: Herbicidal pre-emergence action; details: graded after ca. 3 weeks
From the text: as §1, §2, §3

[15] = system: Digitaria sanguinalis (DIGSA); assay: Herbicidal post-emergence action; details: 320 g/ha, assessed after ca. 3 weeks
From the text: as §4, §5

| Compound | Pre-emergence activity against ALOMY ([1]; 1280 g/ha) [%] | Pre-emergence activity against AVEFA (Avena fatua (AVEFA) [2]; 1280 g/ha) [%] | Pre-emergence activity against ECHCG [3] [%] | Pre-emergence activity against LOLMU [4] [%] | Post-emergence activity against ALOMY ([6]; 1280 g/ha) [%] | Post-emergence activity against AVEFA (Avena fatua (AVEFA) [7]; 1280 g/ha) [%] | Post-emergence activity against ECHCG ([8]; 1280 g/ha) [%] | Post-emergence activity against LOLMU ([9]; 1280 g/ha) [%] | Post-emergence activity against POLCO ([10]; 1280 g/ha) [%] | Pre-emergence activity against SETVI (Setaria viridis (SETVI) [13]) [%] | further results |
| --- | --- | --- | --- | --- | --- | --- | --- | --- | --- | --- | --- |
| COC(=O)C(C(=O)CC1CCC(=O)N1Cc1cccc(F)c1F)C(=O)OC (racemic) [Example I-176] | 90 | 100 | 90 | 90 | 90 | 80 | 90 | 80 | 90 | – | Pre-emergence activity against POLCO ([5]; 1280 g/ha): 80%; Post-emergence activity against SETVI (Setaria viridis (SETVI) [11]): 80% |
| O=C(O)CC1CCC(=O)N1Cc1cccc(F)c1F (stereo not shown) [Example I-003, 2-[1-[(2,3-difluorophenyl)methyl]-5-oxo-pyrrolidin-2-yl]acetic acid] | 90 | 90 | 80 | 90 | 90 | 90 | 90 | 90 | 80 | 80 | Pre-emergence activity against DIGSA [12]: 90%; Pre-emergence activity against LOLRI (Lolium rigidum (LOLRI)): 80%; Pre-emergence activity against POLCO ([5]; 1280 g/ha): 90%; Pre-emergence activity against VIOTR (Viola tricolor (VIOTR); 1280 g/ha): 90%; Post-emergence activity against SETVI (Setaria viridis (SETVI) [11]): 80%; post-emergence activity against BRSNW (Brassica napus (BRSNW)): 0% |
| COC(=O)[C@H](Cc1c[nH]cn1)NC(=O)CC1CCC(=O)N1Cc1cccc(F)c1F (single isomer, unassigned) [Example I-037] | 90 | 100 | 90 | 90 | 80 | 90 | – | – | 80 | 90 | Pre-emergence activity against CYPES ([14]; 1280 g/ha): 100% |
| O=C(CC1CCC(=O)N1Cc1cccc(F)c1F)N1CCCC1 (racemic) [Example I-071] | 80 | 90 | – | – | – | 80 | – | – | 80 | – | Pre-emergence activity against POLCO ([5]; 1280 g/ha): 80% |
| Cc1ccc(SCCOC(=O)CC2CCC(=O)N2Cc2cccc(F)c2F)cc1 (racemic) [Example I-041] | – | – | – | – | – | – | – | – | – | – | Pre-emergence activity against ALOMY ([1]; 320 g/ha): 80%; Pre-emergence activity against AVEFA (Avena fatua (AVEFA) [2]; 320 g/ha): 90%; Pre-emergence activity against VERPE (Veronica persica (VERPE); 320 g/ha): 90%; Post-emergence activity against ALOMY ([6]; 320 g/ha): 80%; Post-emergence activity against ECHCG ([8]; 320 g/ha): 90%; Post-emergence activity against LOLMU ([9]; 320 g/ha): 80%; Post-emergence activity against POLCO ([10]; 320 g/ha): 80% |
| COc1ccc(SCCOC(=O)CC2CCC(=O)N2Cc2cccc(F)c2F)cc1 (racemic) [Example I-040] | 90 | 90 | 80 | – | 90 | – | 80 | 80 | 80 | – | Pre-emergence activity against CYPES ([14]; 1280 g/ha): 80%; Pre-emergence activity against VERPE (Veronica persica (VERPE); 1280 g/ha): 90% |
| C=CCCOC(=O)CC1CCC(=O)N1Cc1cccc(F)c1F (racemic) [Example I-026] | 90 | 100 | 90 | 90 | 80 | 90 | 80 | 80 | 80 | 80 | Pre-emergence activity against CYPES ([14]; 1280 g/ha): 90% |
| C#CCOC(=O)CC1CCC(=O)N1Cc1cccc(F)c1F (racemic) [Example I-023] | 90 | 100 | 80 | 80 | 80 | 80 | 90 | 80 | – | 90 | Pre-emergence activity against CYPES ([14]; 1280 g/ha): 80%; Pre-emergence activity against VERPE (Veronica persica (VERPE); 1280 g/ha): 80%; Post-emergence activity against SETVI (Setaria viridis (SETVI) [11]): 80% |
| O=C(CC1CCC(=O)N1Cc1cccc(F)c1F)NN1CCCC1 (stereo not shown) [Example I-200, 2-[1-[(2,3-difluorophenyl)methyl]-5-oxo-pyrrolidin-2-yl]-N-(pyrrolidin-1-yl)acetamide] | – | – | – | – | – | – | – | – | – | – | Pre-emergence activity against AVEFA (Avena fatua (AVEFA) [2]; 320 g/ha): 100%; Pre-emergence activity against DIGSA [12]: 80%; Pre-emergence activity against POLCO ([5]; 320 g/ha): 90%; Pre-emergence activity against VIOTR (Viola tricolor (VIOTR); 320 g/ha): 80%; Post-emergence activity against ALOMY ([6]; 320 g/ha): 80%; Post-emergence activity against AVEFA (Avena fatua (AVEFA) [7]; 320 g/ha): 80%; Post-emergence activity against DIGSA [15]: 80% |
| Cc1ccc(OCCOC(=O)CC2CCC(=O)N2Cc2cccc(F)c2F)cc1 (stereo not shown) [Example I-034, 2-(4-methylphenoxy)ethyl 2-[1-[(2,3-difluorophenyl)methyl]-5-oxo-pyrrolidin-2-yl]acetate] | 90 | 100 | 80 | – | 80 | – | 90 | 90 | 80 | – | Pre-emergence activity against VERPE (Veronica persica (VERPE); 1280 g/ha): 100%; Post-emergence activity against SETVI (Setaria viridis (SETVI) [11]): 80% |
| O=C(CC1CCC(=O)N1Cc1cccc(F)c1F)Nc1nnc(C(F)F)s1 (racemic) [Example I-195] | – | – | – | – | – | – | – | – | – | – | Pre-emergence activity against VIOTR (Viola tricolor (VIOTR); 320 g/ha): 80% |
| CCCNC(=O)CC1CCC(=O)N1Cc1cccc(F)c1F (racemic) [Example I-110] | – | – | – | – | – | – | – | – | 80 | – | – |
| O=C(CC1CCC(=O)N1Cc1cccc(F)c1F)OC1CCCC1 (racemic) [Example I-017] | 90 | 100 | 90 | 80 | 80 | 90 | 90 | – | 80 | 90 | Pre-emergence activity against POLCO ([5]; 1280 g/ha): 80% |
| O=C(CC1CCC(=O)N1Cc1cccc(F)c1F)OCCOc1ccccc1 (racemic) [Example I-027] | – | – | – | – | – | – | – | – | – | – | Pre-emergence activity against ALOMY ([1]; 320 g/ha): 80%; Pre-emergence activity against AVEFA (Avena fatua (AVEFA) [2]; 320 g/ha): 90%; Pre-emergence activity against CYPES ([14]; 320 g/ha): 80%; Post-emergence activity against ECHCG ([8]; 320 g/ha): 90%; Post-emergence activity against LOLMU ([9]; 320 g/ha): 80%; Post-emergence activity against POLCO ([10]; 320 g/ha): 80% |
| Cc1cccc(CN2C(=O)CCC2CC(=O)O)c1C (racemic) [Example I-194] | – | – | – | – | – | – | – | – | – | – | Post-emergence activity against DIGSA [15]: 90% |
